Assay results published in patent US20260262643A1, “HERBICIDAL BENZOXAZINES” (FMC CORPORATION, priority 2022, published 2026).
Where two headings read alike, the source gives them in different places.

Key:
[1] = test system: blackgrass; test: Test A preemergence; assay type: in vivo, Alopecurus myosuroides; conditions: Alopecurus myosuroides, pre-emergence, 240 h, read-out: Plant response rating, Blackgrass; for pest or weed control at 125 g/ha: 125 g ai/ha; for pest or weed control at 500 g/ha: 500 g ai/ha
How it was run: (§1)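 Visual injury ratings on a 0–100 scale (100 = complete control) versus untreated controls, taken 10 days after treatment in greenhouse. Preemergence: directed soil spray onto seeded loam/sand. Postemergence: foliar application at one- to two-leaf stage, plants 2–10 cm. Formulation: non-phytotoxic solvent plus surfactant.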

[2] = test system: goosegrass; test: Test A preemergence; assay type: in vivo, Eleusine indica; conditions: Eleusine indica, pre-emergence, 240 h, read-out: Plant response rating, Goosegrass; for pest or weed control at 125 g/ha: 125 g ai/ha; for pest or weed control at 500 g/ha: 500 g ai/ha
How it was run: as §1

[3] = test system: kochia; test: Test A preemergence; assay type: in vivo, Bassia scoparia; conditions: Bassia scoparia, pre-emergence, 240 h, read-out: Plant response rating, Kochia; for pest or weed control at 125 g/ha: 125 g ai/ha; for pest or weed control at 500 g/ha: 500 g ai/ha
How it was run: as §1

[4] = test system: ryegrass, Italian; test: Test A preemergence; assay type: in vivo, Lolium multiflorum; conditions: Lolium multiflorum, pre-emergence, 240 h, read-out: Plant response rating, Ryegrass, Italian; for pest or weed control at 125 g/ha: 125 g ai/ha; for pest or weed control at 500 g/ha: 500 g ai/ha
How it was run: as §1

[5] = test system: wheat; test: Test A preemergence; assay type: in vivo, Triticum aestivum; conditions: Triticum aestivum, pre-emergence, 240 h, read-out: Plant response rating, Wheat; for plant injury at 125 g/ha: 125 g ai/ha; for plant injury at 500 g/ha: 500 g ai/ha
How it was run: as §1

[6] = test system: corn; test: Test A postemergence; assay type: in vivo, Zea mays; conditions: Zea mays, post-emergence, 240 h, postemergence, 10 days, 0 to 100 scale (0 no effect, 100 complete control); for plant injury at 125 g/ha: 125 g ai/ha, read-out: Corn plant response rating; for Corn plant response rating (crop injury, 0 = no effect, 100 = complete kill) at 500 g/ha: 500 g ai/ha, visual injury
How it was run: as §1

[7] = test system: foxtail, giant; test: Test A postemergence; assay type: in vivo, Setaria faberi; conditions: Setaria faberi, post-emergence, 240 h, postemergence, 10 days, 0 to 100 scale (0 no effect, 100 complete control); for pest or weed control at 125 g/ha: 125 g ai/ha, read-out: Foxtail, Giant plant response rating; for pest or weed control at 500 g/ha: 500 g ai/ha, visual injury, read-out: Plant response rating, Foxtail, Giant
How it was run: as §1

[8] = test system: goosegrass; test: Test A postemergence; assay type: in vivo, Eleusine indica; conditions: Eleusine indica, post-emergence, 240 h, postemergence, 10 days, 0 to 100 scale (0 no effect, 100 complete control); for pest or weed control at 125 g/ha: 125 g ai/ha, read-out: Goosegrass plant response rating; for pest or weed control at 500 g/ha: 500 g ai/ha, visual injury, read-out: Plant response rating, Goosegrass
How it was run: as §1

[9] = test system: ragweed; test: Test A postemergence; assay type: in vivo, Ambrosia artemisiifolia; conditions: Ambrosia artemisiifolia, post-emergence, 240 h, postemergence, 10 days, 0 to 100 scale (0 no effect, 100 complete control); for pest or weed control at 125 g/ha: 125 g ai/ha, read-out: Ragweed plant response rating; for pest or weed control at 500 g/ha: 500 g ai/ha, visual injury, read-out: Plant response rating, Ragweed
How it was run: as §1

[10] = test system: ryegrass, Italian; test: Test A postemergence; assay type: in vivo, Lolium multiflorum; conditions: Lolium multiflorum, post-emergence, 240 h, postemergence, 10 days, 0 to 100 scale (0 no effect, 100 complete control); for pest or weed control at 125 g/ha: 125 g ai/ha, read-out: Ryegrass, Italian plant response rating; for pest or weed control at 500 g/ha: 500 g ai/ha, visual injury, read-out: Plant response rating, Ryegrass, Italian
How it was run: as §1

[11] = test system: soybean; test: Test A postemergence; assay type: in vivo, Glycine max; conditions: Glycine max, post-emergence, 240 h, postemergence, 10 days, 0 to 100 scale (0 no effect, 100 complete control); for plant injury at 125 g/ha: 125 g ai/ha, read-out: Soybean plant response rating; for plant injury at 500 g/ha: 500 g ai/ha, visual injury, read-out: Plant response rating, Soybean
How it was run: as §1

[12] = test system: galium; test: Test A postemergence; assay type: in vivo, Galium aparine; conditions: Galium, post-emergence, 240 h, postemergence, 10 days, 0 to 100 scale (0 no effect, 100 complete control); for pest or weed control at 125 g/ha: 125 g ai/ha, read-out: Galium plant response rating; for pest or weed control at 500 g/ha: 500 g ai/ha, visual injury, read-out: Plant response rating, Galium
How it was run: as §1

[13] = test system: ducksalad; test: Test B flooded paddy test; assay type: in vivo, Heteranthera limosa; conditions: Heteranthera limosa, 312 h, 250 g ai/ha, Flood, 13 days, 0 to 100 scale (0 no effect, 100 complete control); read-out: Plant response rating, Ducksalad
How it was run: (§2)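 Species grown to 2-leaf stage; pots flooded 3 cm above soil and compound applied directly to paddy water, depth maintained throughout. After 13 days in greenhouse, plants visually rated against controls on 0–100 scale (0 no effect, 100 complete control); dash means no result.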

[14] = test system: sedge, umbrella; test: Test B flooded paddy test; assay type: in vivo, Cyperus difformis; conditions: Cyperus difformis, 312 h; 250 g ai/ha, Flood, 13 days, 0 to 100 scale (0 no effect, 100 complete control); read-out: Plant response rating, Sedge, Umbrella
How it was run: as §2

[15] = visual injury after 10 days, 0 to 100 scale, 0 is no effect, 100 is complete control
[16] = 0 to 100 scale (0 no effect, 100 complete control), 10 days

Structure (SMILES)	pest or weed control at 125 g/ha [1, 15] [%]	pest or weed control at 125 g/ha [2, 15] [%]	pest or weed control at 125 g/ha [3, 15] [%]	pest or weed control at 125 g/ha [4, 15] [%]	plant injury at 125 g/ha [5, 15] [%]	plant injury at 125 g/ha [6] [%]	Corn plant response rating (crop injury, 0 = no effect, 100 = complete kill) at 500 g/ha [6] [%]	pest or weed control at 125 g/ha [7] [%]	pest or weed control at 500 g/ha [7] [%]	pest or weed control at 125 g/ha [8] [%]	pest or weed control at 500 g/ha [8] [%]	pest or weed control at 125 g/ha [9] [%]	pest or weed control at 500 g/ha [9] [%]	pest or weed control at 125 g/ha [10] [%]	pest or weed control at 500 g/ha [10] [%]	plant injury at 125 g/ha [11] [%]	plant injury at 500 g/ha [11] [%]	pest or weed control at 125 g/ha [12] [%]	pest or weed control at 500 g/ha [12] [%]	pest or weed control at 250 g/ha [13] [%]	other results
C[C@H]1CN(C(=O)c2cccc(-c3cnn(C)n3)c2)c2cccc(Cl)c2O1 [Compound 127, [(2S)-8-Chloro-2,3-dihydro-2-methyl-4H-1,4-benzoxazin-4-yl][3-(2-methyl-2H-1,2,3-triazol-4-yl)phenyl]methanone]	20	60	0	20	0	20	50	50	90	10	70	0	10	10	50	100	100	60	100	0	pest or weed control at 500 g/ha [1, 15]: 70%; pest or weed control at 500 g/ha [2, 15]: 100%; pest or weed control at 500 g/ha [3, 15]: 60%; pest or weed control at 500 g/ha [4, 15]: 90%; plant injury at 500 g/ha [5, 15]: 0%; pest or weed control at 250 g/ha [14]: 0%
C[C@H]1CN(C(=O)c2cccc(-n3cnc(C4CCC4)n3)c2)c2cccc(Cl)c2O1 [Compound 93, [(2S)-8-Chloro-2,3-dihydro-2-methyl-4H-1,4-benzoxazin-4-yl][3-(3-cyclobutyl-1H-1,2,4-triazol-1-yl)phenyl]methanone]	80	90	50	90	0	60	90	60	90	20	70	50	50	30	90	100	100	100	100	0	pest or weed control at 500 g/ha [1, 16]: 90%; pest or weed control at 500 g/ha [2, 16]: 100%; pest or weed control at 500 g/ha [3, 16]: 100%; pest or weed control at 500 g/ha [4, 16]: 100%; plant injury at 500 g/ha [5, 16]: 10%; pest or weed control at 250 g/ha [14]: 0%
